The values that follow come from US20080070868A1, “Novel Thiazole Inhibitors of Fructose 1,6-bisphosphatase” (Metabasis Therapeutics, Inc., priority 2004, published 2008).

This test has as its target T1, human liver FBPase (Homo sapiens, UniProt P09467).
T1 construct: made in house; host or cells: E. coli BL21
T1 sequence (P09467 2-338 limits assumed): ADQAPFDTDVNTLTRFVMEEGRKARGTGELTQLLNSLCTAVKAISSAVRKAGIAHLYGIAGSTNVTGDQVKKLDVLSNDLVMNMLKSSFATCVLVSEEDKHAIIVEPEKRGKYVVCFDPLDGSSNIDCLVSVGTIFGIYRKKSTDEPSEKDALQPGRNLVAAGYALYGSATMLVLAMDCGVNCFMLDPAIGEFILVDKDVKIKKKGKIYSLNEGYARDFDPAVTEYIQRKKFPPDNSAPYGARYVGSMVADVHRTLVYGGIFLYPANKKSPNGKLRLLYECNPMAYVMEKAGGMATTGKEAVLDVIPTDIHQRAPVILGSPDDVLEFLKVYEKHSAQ
Description: Inhibition of human liver FBPase. The settings on record: purified recombinant human liver FBPase, 0.150 mM fructose 1,6-bisphosphate, 37° C.; read-out: IC50 (hlFBPase). Format: biochemical. The procedure: E. coli strain BL21 transformed with a human liver FBPase-encoding plasmid was obtained from Dr. M. R. El-Maghrabi at the State University of New York at Stony Brook. […] Enzymatic activity was measured spectrophotometrically in reactions that coupled the formation of product (fructose 6-phosphate) to the reduction of dimethylthiazoldiphenyltetrazolium bromide (MTT) via NADP^+ and phenazine methosulfate (PMS), using phosphoglucose isomerase and glucose 6-phosphate dehydrogenase as the coupling enzymes. Reaction mixtures (200 μl) were made up in 96-well microtitre plates, and consisted of 50 mM Tris-HCl, pH 7.4, 100 mM KCl, 5 mM EGTA, 2 mM MgCl2, 0.2 mM NADP, 1 mg/ml BSA, 1 mM MTT, 0.6 mM PMS, 1 unit/ml phosphoglucose isomerase, 2 units/ml glucose 6-phosphate dehydrogenase, and 0.150 mM substrate (fructose 1,6-bisphosphate). Inhibitor concentrations were varied from 0.01 μM to 10 μM. Reactions were started by the addition of 0.002 units of pure hlFBPase, and were monitored for 7 min. at 590 nm in a Molecular Devices Plate Reader (37° C.).
`CCC(C)C(=O)c1sc(N)nc1-c1ccc(P(=O)(O)O)o1` (stereo not shown) [Compound 1.33, [5-(2-amino-5-(2-methylbutyryl)thiazol-4-yl)furan-2-yl]-phosphonic acid]: the IC50 amounted to 11 nM.

Regarding `Nc1nc(-c2ccc(P(=O)(O)O)o2)c(C(=O)c2ccccc2C(F)(F)F)s1` [Compound 1.27, [5-(2-amino-5-(2-trifluoromethylbenzoyl)thiazol-4-yl)-furan-2-yl]phosphonic acid], the IC50 is 111 nM.

As for `Nc1nc(-c2ccc(P(=O)(O)O)o2)c(C(=O)C2CCCCC2)s1` [Compound 1.6, [5-(2-amino-5-cyclohexylcarbonyl-thiazol-4-yl)furan-2-yl]-phosphonic acid], the half-maximal inhibitory concentration (IC50) turned out to be 40 nM.

`Nc1nc(-c2ccc(P(=O)(O)O)o2)c(C(=O)c2cccc(C(F)(F)F)c2)s1` [Compound 1.26, [5-(2-amino-5-(3-trifluoromethylbenzoyl)thiazol-4-yl)-furan-2-yl]phosphonic acid]: the 50% inhibitory concentration (IC50) was found to be 119 nM.

In the case of `COc1ccc(C(=O)c2sc(N)nc2-c2ccc(P(=O)(O)O)o2)cc1` [Compound 1.16, [5-(2-amino-5-(4-methoxybenzoyl)thiazol-4-yl)furan-2-yl]-phosphonic acid], the IC50 was 61 nM.

For `Nc1nc(-c2ccc(P(=O)(O)O)o2)c(C(=O)c2ccc(C(F)(F)F)cc2)s1` [Compound 1.24, [5-(2-amino-5-(4-trifluoromethylbenzoyl)thiazol-4-yl)-furan-2-yl]phosphonic acid], the IC50 was 99 nM.

For `COc1ccc(C(=O)c2sc(N)nc2-c2ccc(P(=O)(O)O)o2)cc1OC` [Compound 1.17, [5-(2-amino-5-(3,4-dimethoxybenzoyl)thiazol-4-yl)furan-2-yl]-phosphonic acid], the IC50 was 94 nM.

Take `Cc1cccc(C(=O)c2sc(N)nc2-c2ccc(P(=O)(O)O)o2)c1` [Compound 1.11, [5-(2-amino-5-(3-methylbenzoyl)thiazol-4-yl)furan-2-yl]-phosphonic acid]: the IC50 came out at 36 nM.

For the compound `Nc1nc(-c2ccc(P(=O)(O)O)o2)c(C(=O)c2ccc(Cl)cc2)s1` [Compound 1.9, [5-(2-amino-5-(4-chlorobenzoyl)thiazol-4-yl)furan-2-yl]-phosphonic acid], the IC50 was found to be 86 nM.

`CN(C)c1ccc(C(=O)c2sc(N)nc2-c2ccc(P(=O)(O)O)o2)cc1` [Compound 1.32, [5-(2-amino-5-(4-(N,N-dimethylamino)benzoyl)thiazol-4-yl)-furan-2-yl]phosphonic acid]: the IC50 amounted to 105 nM.

As to `Cc1ccccc1C(=O)c1sc(N)nc1-c1ccc(P(=O)(O)O)o1` [Compound 1.13, [5-(2-amino-5-(2-methylbenzoyl)thiazol-4-yl)furan-2-yl]-phosphonic acid], the IC50 amounted to 48 nM.

Consider `Nc1nc(-c2ccc(P(=O)(O)O)o2)c(C(=O)C2CCC2)s1` [Compound 1.34, [5-(2-amino-5-cyclobutylcarbonylthiazol-4-yl)furan-2-yl]-phosphonic acid], for which the IC50 came out at 16 nM.

Take `Nc1nc(-c2ccc(P(=O)(O)O)o2)c(C(=O)c2ccc(N3CCOCC3)c(Cl)c2)s1` [Compound 1.25, [5-(2-amino-5-(3-chloro-4-(1-morpholinyl)benzoyl)-thiazol-4-yl)furan-2-yl]phosphonic acid]: the IC50 turned out to be 95 nM.

`Nc1nc(-c2ccc(P(=O)(O)O)o2)c(C(=O)c2ccc(N3CCCCC3)cc2)s1` [Compound 1.31, [5-(2-amino-5-(4-piperidinylbenzoyl)thiazol-4-yl)furan-2-yl]-phosphonic acid]: the IC50 is 73 nM.

Take `CCC(CC)C(=O)c1sc(N)nc1-c1ccc(P(=O)(O)O)o1` [Compound 1.23, [5-(2-amino-5-(2-ethylbutyryl)thiazol-4-yl)furan-2-yl]-phosphonic acid]: the 50% inhibitory concentration (IC50) is 9 nM.

In the case of `Cc1ccc(C(=O)c2sc(N)nc2-c2ccc(P(=O)(O)O)o2)cc1` [Compound 1.10, [5-(2-amino-5-(4-methylbenzoyl)thiazol-4-yl)furan-2-yl]-phosphonic acid], the IC50 worked out at 48 nM.

One may read the IC50 as the concentration needed to halve the response being measured.
